Molecular target: Full-length inactive AKT1 (Homo sapiens, UniProt P31749)
Assay: Inactive Akt Alpha Screen Assay
Assay type: biochemical
Conditions: values not marked with "*"; read-out: Akt1 IC50, (AlphaScreen)
Method in brief: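 AlphaScreen read-out (excitation 640 nm, emission 570 nm) after 90 min incubation at room temperature in the dark. Signal comes from crosstide phosphorylation by AKT1, which was activated by added PDK1, MAPKAPK2, ATP and lipid vesicles, captured via phospho-AKT substrate antibody and streptavidin beads.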

Chain of Full-length inactive AKT1 (P31749 whole entry): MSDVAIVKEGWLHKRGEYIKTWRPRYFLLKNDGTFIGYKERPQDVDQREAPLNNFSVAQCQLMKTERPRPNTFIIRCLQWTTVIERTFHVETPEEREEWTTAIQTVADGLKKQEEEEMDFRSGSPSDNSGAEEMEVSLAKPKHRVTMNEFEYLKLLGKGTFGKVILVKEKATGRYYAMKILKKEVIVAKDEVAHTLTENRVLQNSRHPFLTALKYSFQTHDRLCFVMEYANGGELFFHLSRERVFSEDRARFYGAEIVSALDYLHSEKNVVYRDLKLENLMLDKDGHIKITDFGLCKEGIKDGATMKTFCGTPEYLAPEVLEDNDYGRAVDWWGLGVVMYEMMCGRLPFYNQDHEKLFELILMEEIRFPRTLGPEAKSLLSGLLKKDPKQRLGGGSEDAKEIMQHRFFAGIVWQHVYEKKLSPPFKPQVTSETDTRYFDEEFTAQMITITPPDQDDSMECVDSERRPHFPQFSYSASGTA

| SMILES | IC50 [nM] |
| --- | --- |
| Nc1ncccc1-c1nc2cc(-c3ccccc3)cnc2n1-c1ccc(C2(C(=O)O)CCC2)cc1 [Example 363, 1-(4-(2-(2-aminopyridin-3-yl)-6-phenyl-3H-imidazo[4,5-b]pyridin-3-yl)phenyl)cyclobutanecarboxylic acid] | 250 |
| CS(=O)(=O)Nc1ncccc1-c1nc2ccc(-c3ccccc3)nc2n1-c1ccc(C2(NS(C)(=O)=O)CCC2)cc1 [Example 366, N-(3-(3-(4-(1-(methylsulfonamido)cyclobutyl)phenyl)-5-phenyl-3H-imidazo[4,5-b]pyridin-2-yl)pyridin-2-yl)methanesulfonamide] | 140 |
| CS(=O)(=O)NC1(c2ccc(-n3c(-c4cccnc4N)nc4ccc(-c5ccccc5)nc43)cc2)CCC1 [Example 367, N-(1-(4-(2-(2-aminopyridin-3-yl)-5-phenyl-3H-imidazo[4,5-b]pyridin-3-yl)phenyl)cyclobutyl)methanesulfonamide] | 180 |
| Nc1ncc(Cl)cc1-c1nc2ccc(-c3ccccc3)nc2n1-c1ccc(C2(N)CCC2)cc1 [Example 368, 3-(3-(4-(1-aminocyclobutyl)phenyl)-5-phenyl-3H-imidazo[4,5-b]pyridin-2-yl)-5-chloropyridin-2-amine] | 10 |
| Nc1ncccc1-c1nc2ccc(-c3ccccc3)nc2n1-c1ccc(C2(N)COC2)cc1 [Example 373, 3-(3-(4-(3-aminooxetan-3-yl)phenyl)-5-phenyl-3H-imidazo[4,5-b]pyridin-2-yl)pyridin-2-amine] | 6.6 |
| CNC(=O)C1(c2ccc(-n3c(-c4cccnc4N)nc4ccc(-c5ccccc5)nc43)cc2)CCC1 [Example 378, 1-(4-(2-(2-aminopyridin-3-yl)-5-phenyl-3H-imidazo[4,5-b]pyridin-3-yl)phenyl)-N-methylcyclobutanecarboxamide] | 93 |
| Nc1ncccc1-c1nc2ccc(-c3ccccc3)nc2n1-c1ccc(C2(C(=O)NCCO)CCC2)cc1 [Example 379, 1-(4-(2-(2-aminopyridin-3-yl)-5-phenyl-3H-imidazo[4,5-b]pyridin-3-yl)phenyl)-N-(2-hydroxyethyl)cyclobutanecarboxamide] | 290 |
| Nc1ncccc1-c1nc2ccc(-c3ccccc3)nc2n1-c1ccc(C2(NC(=O)Nc3ccccc3)CCC2)cc1 [Example 381, 1-(1-(4-(2-(2-aminopyridin-3-yl)-5-phenyl-3H-imidazo[4,5-b]pyridin-3-yl)phenyl)cyclobutyl)-3-phenylurea] | 54 |
| Nc1ncccc1-c1nc2ccc(-c3ccccc3CO)nc2n1-c1ccc(C2(N)CCC2)cc1 [Example 382, (2-(3-(4-(1-aminocyclobutyl)phenyl)-2-(2-aminopyridin-3-yl)-3H-imidazo[4,5-b]pyridin-5-yl)phenyl)methanol] | 10 |
| Nc1ncccc1-c1nc2ccc(-c3ccc(CO)cc3)nc2n1-c1ccc(C2(N)CCC2)cc1 [Example 383, (4-(3-(4-(1-aminocyclobutyl)phenyl)-2-(2-aminopyridin-3-yl)-3H-imidazo[4,5-b]pyridin-5-yl)phenyl)methanol] | 3.7 |
| Nc1ncccc1-c1nc2ccc(-c3cccc(N4CCOCC4)c3)nc2n1-c1ccc(C2(N)CCC2)cc1 [Example 390, 3-(3-(4-(1-aminocyclobutyl)phenyl)-5-(3-morpholinophenyl)-3H-imidazo[4,5-b]pyridin-2-yl)pyridin-2-amine] | 2.3 |
| Nc1ncccc1-c1nc2ccc(-c3ccccn3)nc2n1-c1ccc(C2(N)CCC2)cc1 [Example 393, 3-(3-(4-(1-aminocyclobutyl)phenyl)-5-(pyridin-2-yl)-3H-imidazo[4,5-b]pyridin-2-yl)pyridin-2-amine] | 3.7 |
| Nc1ncccc1-c1nc2ccc(-c3cncnc3)nc2n1-c1ccc(C2(N)CCC2)cc1 [Example 395, 3-(3-(4-(1-aminocyclobutyl)phenyl)-5-(pyrimidin-5-yl)-3H-imidazo[4,5-b]pyridin-2-yl)pyridin-2-amine] | 9.8 |
| Nc1ncccc1-c1nc2ccc(-c3cccc4[nH]ccc34)nc2n1-c1ccc(C2(N)CCC2)cc1 [Example 397, 3-(3-(4-(1-aminocyclobutyl)phenyl)-5-(1H-indol-4-yl)-3H-imidazo[4,5-b]pyridin-2-yl)pyridin-2-amine] | 3.8 |

Results, then the compound that gave them:

| IC50 [nM] | SMILES |
| --- | --- |
| 1.6 | CCOC(=O)c1cccc(-c2ccc3nc(-c4cccnc4N)n(-c4ccc(C5(N)CCC5)cc4)c3n2)c1 [Example 364, ethyl 3-(3-(4-(1-aminocyclobutyl)phenyl)-2-(2-aminopyridin-3-yl)-3H-imidazo[4,5-b]pyridin-5-yl)benzoate] |
| 3 | NC(=O)c1cccc(-c2ccc3nc(-c4cccnc4N)n(-c4ccc(C5(N)CCC5)cc4)c3n2)c1 [Example 365, 3-(3-(4-(1-aminocyclobutyl)phenyl)-2-(2-aminopyridin-3-yl)-3H-imidazo[4,5-b]pyridin-5-yl)benzamide] |
| 5.4 | CNC(=O)c1cccc(-c2ccc3nc(-c4cccnc4N)n(-c4ccc(CN)cc4)c3n2)c1 [Example 369, 3-(3-(4-(aminomethyl)phenyl)-2-(2-aminopyridin-3-yl)-3H-imidazo[4,5-b]pyridin-5-yl)-N-methylbenzamide] |
| 4.6 | CNC(=O)c1cccc(-c2ccc3nc(-c4cccnc4N)n(-c4ccc(C5(N)CCC5)cc4)c3n2)c1 [Example 370, 3-(3-(4-(1-aminocyclobutyl)phenyl)-2-(2-aminopyridin-3-yl)-3H-imidazo[4,5-b]pyridin-5-yl)-N-methylbenzamide] |
| 2.1 | CC(=O)c1cccc(-c2ccc3nc(-c4cccnc4N)n(-c4ccc(C5(N)CCC5)cc4)c3n2)c1 [Example 372, 1-(3-(3-(4-(1-aminocyclobutyl)phenyl)-2-(2-aminopyridin-3-yl)-3H-imidazo[4,5-b]pyridin-5-yl)phenyl)ethanone] |
| 1.3 | Nc1ncccc1-c1nc2ccc(-c3cccc(CO)c3)nc2n1-c1ccc(C2(N)CCC2)cc1 [Example 374, (3-(3-(4-(1-aminocyclobutyl)phenyl)-2-(2-aminopyridin-3-yl)-3H-imidazo[4,5-b]pyridin-5-yl)phenyl)methanol] |
| 1.4 | CS(=O)(=O)Nc1cccc(-c2ccc3nc(-c4cccnc4N)n(-c4ccc(C5(N)CCC5)cc4)c3n2)c1 [Example 375, N-(3-(3-(4-(1-aminocyclobutyl)phenyl)-2-(2-aminopyridin-3-yl)-3H-imidazo[4,5-b]pyridin-5-yl)phenyl)methanesulfonamide] |
| 3.8 | Nc1ncccc1-c1nc2ccc(-c3cccc(C(=O)O)c3)nc2n1-c1ccc(C2(N)CCC2)cc1 [Example 376, 3-(3-(4-(1-aminocyclobutyl)phenyl)-2-(2-3aminopyridin-3-yl)-H-imidazo[4,5-b]pyridin-5-yl)benzoic acid] |
| 3.3 | CN(C)C(=O)c1cccc(-c2ccc3nc(-c4cccnc4N)n(-c4ccc(C5(N)CCC5)cc4)c3n2)c1 [Example 380, 3-(3-(4-(1-aminocyclobutyl)phenyl)-2-(2-aminopyridin-3-yl)-3H-imidazo[4,5-b]pyridin-5-yl)-N,N-dimethylbenzamide] |
| 37 | NC(=O)c1ccccc1-c1ccc2nc(-c3cccnc3N)n(-c3ccc(C4(N)CCC4)cc3)c2n1 [Example 384, 2-(3-(4-(1-aminocyclobutyl)phenyl)-2-(2-aminopyridin-3-yl)-3H-imidazo[4,5-b]pyridin-5-yl)benzamide] |
| 2.8 | Nc1ncccc1-c1nc2ccc(-c3cccc(C(=O)NCCO)c3)nc2n1-c1ccc(C2(N)CCC2)cc1 [Example 385, 3-(3-(4-(1-aminocyclobutyl)phenyl)-2-(2-aminopyridin-3-yl)-3H-imidazo[4,5-b]pyridin-5-yl)-N-(2-hydroxyethyl)benzamide] |
| 2.3 | CN(CCO)C(=O)c1cccc(-c2ccc3nc(-c4cccnc4N)n(-c4ccc(C5(N)CCC5)cc4)c3n2)c1 [Example 386, 3-(3-(4-(1-aminocyclobutyl)phenyl)-2-(2-aminopyridin-3-yl)-3H-imidazo[4,5-b]pyridin-5-yl)-N-(2-hydroxyethyl)-N-methylbenzamide] |
| 8.7 | NC(=O)c1ccc(-c2ccc3nc(-c4cccnc4N)n(-c4ccc(C5(N)CCC5)cc4)c3n2)cc1 [Example 387, 4-(3-(4-(1-aminocyclobutyl)phenyl)-2-(2-aminopyridin-3-yl)-3H-imidazo[4,5-b]pyridin-5-yl)benzamide] |
| 3 | Nc1ncccc1-c1nc2ccc(-c3cccc(C(=O)N4CCOCC4)c3)nc2n1-c1ccc(C2(N)CCC2)cc1 [Example 388, (3-(3-(4-(1-aminocyclobutyl)phenyl)-2-(2-aminopyridin-3-yl)-3H-imidazo[4,5-b]pyridin-5-yl)phenyl)(morpholino)methanone] |
| 1.6 | Nc1ncccc1-c1nc2ccc(-c3cccc(O)c3)nc2n1-c1ccc(C2(N)CCC2)cc1 [Example 389, 3-(3-(4-(1-aminocyclobutyl)phenyl)-2-(2-aminopyridin-3-yl)-3H-imidazo[4,5-b]pyridin-5-yl)phenol] |
| 5 | CS(=O)(=O)c1cccc(-c2ccc3nc(-c4cccnc4N)n(-c4ccc(C5(N)CCC5)cc4)c3n2)c1 [Example 391, 3-(3-(4-(1-aminocyclobutyl)phenyl)-5-(3-(methylsulfonyl)phenyl)-3H-imidazo[4,5-b]pyridin-2-yl)pyridin-2-amine] |
| 7.1 | N#Cc1cccc(-c2ccc3nc(-c4cccnc4N)n(-c4ccc(C5(N)CCC5)cc4)c3n2)c1 [Example 392, 3-(3-(4-(1-aminocyclobutyl)phenyl)-2-(2-aminopyridin-3-yl)-3H-imidazo[4,5-b]pyridin-5-yl)benzonitrile] |
| 3.9 | Nc1ncccc1-c1nc2ccc(-c3ccncc3)nc2n1-c1ccc(C2(N)CCC2)cc1 [Example 394, 3-(3-(4-(1-aminocyclobutyl)phenyl)-5-(pyridin-4-yl)-3H-imidazo[4,5-b]pyridin-2-yl)pyridin-2-amine] |
| 3.2 | COc1cccc(-c2ccc3nc(-c4cccnc4N)n(-c4ccc(C5(N)CCC5)cc4)c3n2)c1 [Example 396, 3-(3-(4-(1-aminocyclobutyl)phenyl)-5-(3-methoxyphenyl)-3H-imidazo[4,5-b]pyridin-2-yl)pyridin-2-amine] |
